From ChEMBL document CHEMBL1201862, “PubChem BioAssay data set” (2004)
Values joined by “and” are separate entries in the source; they are usually repeats but may differ in a detail not shown here. Equal values may be shown once. Active and inactive are the calls of the source.

Columns and labels:
[1] = target: T1, DNA repair and recombination protein RAD54-like (Homo sapiens, UniProt Q92698); experiment: RAD54 Holliday junction migration blockers – biochemical, fluorescence, cherry-picked samples, dose series, confirmation (AID 651657); format: functional
T1 sequence (Q92698 whole entry): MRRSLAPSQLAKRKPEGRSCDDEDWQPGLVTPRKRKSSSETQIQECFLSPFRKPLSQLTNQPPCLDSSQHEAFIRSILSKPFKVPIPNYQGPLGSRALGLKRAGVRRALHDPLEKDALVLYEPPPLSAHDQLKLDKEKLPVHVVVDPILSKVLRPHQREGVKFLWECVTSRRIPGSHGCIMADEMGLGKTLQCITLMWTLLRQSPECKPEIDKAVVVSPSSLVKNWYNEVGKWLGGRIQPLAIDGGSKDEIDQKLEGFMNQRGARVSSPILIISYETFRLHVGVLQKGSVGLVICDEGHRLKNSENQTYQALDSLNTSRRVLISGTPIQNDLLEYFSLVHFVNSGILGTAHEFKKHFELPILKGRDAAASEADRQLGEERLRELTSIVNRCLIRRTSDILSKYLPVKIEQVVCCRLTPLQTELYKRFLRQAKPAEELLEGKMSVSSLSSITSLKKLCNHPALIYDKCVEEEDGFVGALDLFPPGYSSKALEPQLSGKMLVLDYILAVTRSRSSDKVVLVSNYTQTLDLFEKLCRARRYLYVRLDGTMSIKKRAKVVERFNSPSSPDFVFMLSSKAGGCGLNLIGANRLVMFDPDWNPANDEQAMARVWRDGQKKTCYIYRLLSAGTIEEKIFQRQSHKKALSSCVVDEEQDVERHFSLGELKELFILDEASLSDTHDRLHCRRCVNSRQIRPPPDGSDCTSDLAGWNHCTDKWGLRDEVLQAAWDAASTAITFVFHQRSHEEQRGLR

Aminopeptidase N = target: T2, Aminopeptidase N (Plasmodium falciparum FcB1/Columbia, UniProt O96935); experiment: malaria alanyl aminopeptidase activity blockers – biochemical, fluorogenic H-Leu-NHMec substrate, 1536-well (AID 1445); design: species or system Plasmodium falciparum 3D7, 3D7
T2 sequence (O96935 whole entry): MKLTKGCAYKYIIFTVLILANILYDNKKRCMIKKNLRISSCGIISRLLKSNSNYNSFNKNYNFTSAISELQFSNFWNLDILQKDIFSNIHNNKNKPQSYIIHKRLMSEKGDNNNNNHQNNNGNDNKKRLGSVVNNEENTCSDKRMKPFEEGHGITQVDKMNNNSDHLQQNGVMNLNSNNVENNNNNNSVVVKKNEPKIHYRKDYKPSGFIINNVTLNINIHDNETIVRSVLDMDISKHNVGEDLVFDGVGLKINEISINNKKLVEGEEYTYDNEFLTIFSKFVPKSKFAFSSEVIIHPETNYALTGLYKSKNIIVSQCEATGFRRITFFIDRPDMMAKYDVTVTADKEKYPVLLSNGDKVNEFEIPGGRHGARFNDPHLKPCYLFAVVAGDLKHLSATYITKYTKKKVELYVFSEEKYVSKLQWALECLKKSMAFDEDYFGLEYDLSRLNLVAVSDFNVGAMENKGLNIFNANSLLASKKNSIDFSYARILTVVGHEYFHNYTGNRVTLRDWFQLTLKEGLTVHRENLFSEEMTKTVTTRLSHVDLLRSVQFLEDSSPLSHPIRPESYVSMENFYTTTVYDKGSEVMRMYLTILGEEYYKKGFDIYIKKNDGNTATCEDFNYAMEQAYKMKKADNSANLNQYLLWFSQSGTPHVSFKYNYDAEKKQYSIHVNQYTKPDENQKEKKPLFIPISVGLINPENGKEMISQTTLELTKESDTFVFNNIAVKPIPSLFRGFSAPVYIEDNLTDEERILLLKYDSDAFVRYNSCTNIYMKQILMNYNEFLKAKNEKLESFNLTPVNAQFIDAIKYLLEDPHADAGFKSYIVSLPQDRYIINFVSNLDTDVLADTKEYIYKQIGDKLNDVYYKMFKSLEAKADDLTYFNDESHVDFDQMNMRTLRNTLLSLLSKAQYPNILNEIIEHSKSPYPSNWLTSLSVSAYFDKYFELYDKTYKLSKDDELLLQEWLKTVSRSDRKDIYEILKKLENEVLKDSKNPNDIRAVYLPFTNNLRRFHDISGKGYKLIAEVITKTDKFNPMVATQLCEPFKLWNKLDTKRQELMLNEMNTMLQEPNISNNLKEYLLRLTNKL

Cytochrome P450 2C19 = Cytochrome P450 2C19 (Homo sapiens, UniProt P33261); experiment: Cytochrome panel assay with activity outcomes. Panel member name: p450-cyp2c19 Compounds with AC50 equal or less than 10 uM are considered active; format: functional; conditions: read-out: AC50
Cytochrome P450 1A2 = target: T3, Cytochrome P450 1A2 (Homo sapiens, UniProt P05177);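 note: PubChem cytochrome P450 panel assay, CYP1A2 panel member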
T3 sequence (P05177 whole entry): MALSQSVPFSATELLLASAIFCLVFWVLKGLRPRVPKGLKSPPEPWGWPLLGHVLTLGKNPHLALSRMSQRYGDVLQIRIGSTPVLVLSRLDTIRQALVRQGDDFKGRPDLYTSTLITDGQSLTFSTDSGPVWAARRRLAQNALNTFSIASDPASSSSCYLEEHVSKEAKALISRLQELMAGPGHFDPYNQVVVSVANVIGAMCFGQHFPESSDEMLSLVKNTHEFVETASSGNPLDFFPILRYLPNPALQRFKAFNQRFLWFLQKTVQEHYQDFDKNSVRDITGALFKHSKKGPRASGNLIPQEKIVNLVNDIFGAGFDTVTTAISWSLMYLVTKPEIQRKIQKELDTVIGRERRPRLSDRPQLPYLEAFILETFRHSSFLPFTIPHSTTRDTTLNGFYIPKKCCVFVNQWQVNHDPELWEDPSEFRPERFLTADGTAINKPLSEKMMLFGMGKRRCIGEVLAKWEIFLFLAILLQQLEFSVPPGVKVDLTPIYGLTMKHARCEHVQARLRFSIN

Cytochrome P450 3A4 = Cytochrome P450 3A4 (Homo sapiens, UniProt P08684);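 note: CYP3A4 tested as one member of a cytochrome P450 panel screen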
fMet-Leu-Phe receptor = target: T4, fMet-Leu-Phe receptor (Homo sapiens, UniProt P21462); experiment: formyl peptide receptor binders – dose response (AID 519); format: functional
T4 sequence (P21462 whole entry): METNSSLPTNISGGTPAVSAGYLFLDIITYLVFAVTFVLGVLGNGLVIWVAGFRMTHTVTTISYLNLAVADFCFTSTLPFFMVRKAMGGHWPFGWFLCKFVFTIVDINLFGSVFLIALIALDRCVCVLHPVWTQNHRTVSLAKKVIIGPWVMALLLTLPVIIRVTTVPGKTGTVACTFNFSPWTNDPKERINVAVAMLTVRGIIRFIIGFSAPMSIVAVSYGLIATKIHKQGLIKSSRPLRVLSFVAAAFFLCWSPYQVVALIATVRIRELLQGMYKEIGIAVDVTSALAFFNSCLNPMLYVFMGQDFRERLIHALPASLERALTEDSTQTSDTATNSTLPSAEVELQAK

Protein skinhead-1 = target: T5, Protein skinhead-1 (Caenorhabditis elegans, UniProt P34707); format: functional
T5 sequence (P34707 whole entry): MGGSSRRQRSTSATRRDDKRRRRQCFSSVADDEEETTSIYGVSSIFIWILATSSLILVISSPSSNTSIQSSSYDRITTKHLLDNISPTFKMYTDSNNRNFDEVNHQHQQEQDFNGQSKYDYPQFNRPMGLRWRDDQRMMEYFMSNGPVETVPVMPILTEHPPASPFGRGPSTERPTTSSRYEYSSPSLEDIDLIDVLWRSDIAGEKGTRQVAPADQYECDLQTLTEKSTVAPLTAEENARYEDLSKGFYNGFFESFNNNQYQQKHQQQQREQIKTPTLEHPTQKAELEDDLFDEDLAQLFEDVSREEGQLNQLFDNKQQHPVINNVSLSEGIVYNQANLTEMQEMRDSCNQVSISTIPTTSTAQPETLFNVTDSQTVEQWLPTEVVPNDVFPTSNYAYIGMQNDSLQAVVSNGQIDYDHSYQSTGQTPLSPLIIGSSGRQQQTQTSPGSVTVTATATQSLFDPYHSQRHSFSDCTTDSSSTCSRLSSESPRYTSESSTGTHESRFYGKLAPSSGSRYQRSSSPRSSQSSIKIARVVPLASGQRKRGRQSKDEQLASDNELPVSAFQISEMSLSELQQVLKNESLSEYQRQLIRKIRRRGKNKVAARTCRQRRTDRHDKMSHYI

[2] = target: T6, Histone-lysine N-methyltransferase NSD2 (Homo sapiens, UniProt O96028); format: biochemical
T6 sequence (O96028 whole entry): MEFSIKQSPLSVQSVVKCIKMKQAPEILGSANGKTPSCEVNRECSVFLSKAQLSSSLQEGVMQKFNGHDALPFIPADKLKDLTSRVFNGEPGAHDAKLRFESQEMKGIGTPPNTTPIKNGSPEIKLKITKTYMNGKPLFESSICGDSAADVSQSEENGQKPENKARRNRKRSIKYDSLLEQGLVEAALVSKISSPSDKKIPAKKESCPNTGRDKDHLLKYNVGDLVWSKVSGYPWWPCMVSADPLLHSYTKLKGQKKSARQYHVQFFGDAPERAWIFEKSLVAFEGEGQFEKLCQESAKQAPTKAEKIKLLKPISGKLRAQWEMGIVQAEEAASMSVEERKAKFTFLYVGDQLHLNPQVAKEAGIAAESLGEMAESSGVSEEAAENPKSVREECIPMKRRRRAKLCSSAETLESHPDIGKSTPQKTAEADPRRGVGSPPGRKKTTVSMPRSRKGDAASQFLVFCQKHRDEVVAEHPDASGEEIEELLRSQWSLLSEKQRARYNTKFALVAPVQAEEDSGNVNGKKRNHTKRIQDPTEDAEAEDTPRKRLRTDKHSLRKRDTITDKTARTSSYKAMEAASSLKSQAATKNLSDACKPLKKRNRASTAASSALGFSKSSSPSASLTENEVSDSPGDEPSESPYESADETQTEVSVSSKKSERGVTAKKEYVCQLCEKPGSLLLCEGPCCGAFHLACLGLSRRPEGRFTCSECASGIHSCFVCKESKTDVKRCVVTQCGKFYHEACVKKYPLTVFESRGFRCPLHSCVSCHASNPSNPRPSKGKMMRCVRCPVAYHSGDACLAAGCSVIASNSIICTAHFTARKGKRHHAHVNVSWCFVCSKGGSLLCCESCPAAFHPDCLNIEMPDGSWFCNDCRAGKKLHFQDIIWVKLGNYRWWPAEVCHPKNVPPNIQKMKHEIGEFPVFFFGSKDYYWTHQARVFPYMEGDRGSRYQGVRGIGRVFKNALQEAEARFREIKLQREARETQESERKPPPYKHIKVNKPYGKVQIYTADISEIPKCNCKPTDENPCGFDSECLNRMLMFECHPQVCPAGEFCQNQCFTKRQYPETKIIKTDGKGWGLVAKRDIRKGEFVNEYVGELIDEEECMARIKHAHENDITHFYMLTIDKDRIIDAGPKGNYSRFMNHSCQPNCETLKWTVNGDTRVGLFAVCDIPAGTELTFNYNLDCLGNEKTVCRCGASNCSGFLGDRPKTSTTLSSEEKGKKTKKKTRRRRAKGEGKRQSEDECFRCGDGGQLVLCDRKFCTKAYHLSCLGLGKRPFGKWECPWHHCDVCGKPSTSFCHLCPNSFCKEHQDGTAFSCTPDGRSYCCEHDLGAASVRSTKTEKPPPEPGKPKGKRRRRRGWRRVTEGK

Cytochrome P450 2D6 = Cytochrome P450 2D6 (Homo sapiens, UniProt P10635);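 note: CYP2D6 member of a cytochrome P450 panel assay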
Chain of Cytochrome P450 2D6 (P10635 whole entry): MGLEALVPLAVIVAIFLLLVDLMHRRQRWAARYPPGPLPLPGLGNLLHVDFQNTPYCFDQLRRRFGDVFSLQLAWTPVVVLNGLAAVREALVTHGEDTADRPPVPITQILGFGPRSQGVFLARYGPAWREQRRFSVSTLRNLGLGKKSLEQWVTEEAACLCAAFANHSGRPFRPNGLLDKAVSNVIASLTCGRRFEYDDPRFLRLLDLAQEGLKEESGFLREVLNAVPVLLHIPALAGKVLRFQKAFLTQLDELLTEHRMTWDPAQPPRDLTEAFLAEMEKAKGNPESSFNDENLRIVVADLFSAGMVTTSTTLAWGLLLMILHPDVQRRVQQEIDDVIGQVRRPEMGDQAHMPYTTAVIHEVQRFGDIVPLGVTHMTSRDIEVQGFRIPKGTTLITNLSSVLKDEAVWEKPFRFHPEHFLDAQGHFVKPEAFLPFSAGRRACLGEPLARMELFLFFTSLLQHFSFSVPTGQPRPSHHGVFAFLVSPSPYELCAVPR

Chain of Cytochrome P450 3A4 (P08684 whole entry): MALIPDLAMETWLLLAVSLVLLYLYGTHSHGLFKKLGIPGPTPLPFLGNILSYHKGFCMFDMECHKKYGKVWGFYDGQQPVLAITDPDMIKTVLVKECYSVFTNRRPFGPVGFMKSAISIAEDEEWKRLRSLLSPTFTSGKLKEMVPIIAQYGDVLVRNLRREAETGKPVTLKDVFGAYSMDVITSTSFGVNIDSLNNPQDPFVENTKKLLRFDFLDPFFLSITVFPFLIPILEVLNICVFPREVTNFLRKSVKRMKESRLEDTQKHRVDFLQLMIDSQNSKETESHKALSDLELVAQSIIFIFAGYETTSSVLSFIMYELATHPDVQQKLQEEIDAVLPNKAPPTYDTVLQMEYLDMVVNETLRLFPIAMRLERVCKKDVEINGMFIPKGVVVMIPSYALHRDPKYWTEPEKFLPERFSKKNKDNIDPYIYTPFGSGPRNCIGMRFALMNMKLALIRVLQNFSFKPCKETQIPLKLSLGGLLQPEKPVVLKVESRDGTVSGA
Chain of Cytochrome P450 2C19 (P33261 whole entry): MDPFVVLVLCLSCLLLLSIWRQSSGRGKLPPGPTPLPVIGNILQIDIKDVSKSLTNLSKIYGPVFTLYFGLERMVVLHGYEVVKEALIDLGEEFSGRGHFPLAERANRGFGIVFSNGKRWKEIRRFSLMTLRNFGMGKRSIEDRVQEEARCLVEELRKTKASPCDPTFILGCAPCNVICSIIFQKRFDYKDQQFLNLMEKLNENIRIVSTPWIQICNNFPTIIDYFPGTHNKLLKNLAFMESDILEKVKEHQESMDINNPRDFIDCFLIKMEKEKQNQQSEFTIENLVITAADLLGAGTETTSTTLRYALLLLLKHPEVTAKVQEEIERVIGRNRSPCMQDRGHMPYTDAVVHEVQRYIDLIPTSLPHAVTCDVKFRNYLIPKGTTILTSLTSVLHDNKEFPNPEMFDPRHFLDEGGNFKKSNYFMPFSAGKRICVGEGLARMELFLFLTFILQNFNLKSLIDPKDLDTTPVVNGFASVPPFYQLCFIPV

CN1CCN(c2nc(-c3cccs3)nc3ccccc23)CC1
AC50 [1]: 8.93 µM (active)

CCCN(CCC)CCCNC(=O)c1cc2cc3ccc(OC)cc3nc2o1
IC50 (Aminopeptidase N): 45.9 µM (active)
AC50 (Cytochrome P450 2C19): 20 µM (inconclusive)
AC50 [1]: 31.6 µM (active)
AC50 (Cytochrome P450 1A2): 20 µM (inconclusive)
AC50 (Cytochrome P450 3A4): 15.8 µM (inconclusive)

O=C(C1=C(O)C(=O)N(CC2CCCO2)C1c1cccnc1)c1ccco1 (configuration not stated)
Ki (fMet-Leu-Phe receptor): 54.8 µM (inactive)

CCOc1cc(C(=O)NCc2nnc(SCC(=O)OC)n2C)cc(OCC)c1OCC
Ki (fMet-Leu-Phe receptor): > 66.7 µM (inactive)

Cc1nn(C(=O)CCC(=O)NCc2cccc(F)c2)c2ccccc12
IC50 (Protein skinhead-1): > 100 µM (inactive)

CCSc1nnc(NC(=O)CSc2nnc(Cc3cccn3C)n2CCc2ccccc2)s1
Ki (fMet-Leu-Phe receptor): > 66.7 µM (inactive)

CCc1nn2c(=O)cc(CSc3nc4sc5c(c4c(=O)n3C)CCCC5)nc2s1
Ki (fMet-Leu-Phe receptor): > 66.7 µM (inactive)

CCNCCC(=O)N1c2ccccc2Sc2ccc(C(F)(F)F)cc21
AC50 [2]: > 20 µM (inactive)

CNCCC1Sc2ccccc2Oc2ccccc21 (configuration not stated)
AC50 [2]: > 20 µM (inactive)

O=C(Nc1cccc(Cl)c1)c1cc(S(=O)(=O)N2CCOCC2)cs1
AC50 [1]: 30.1 µM (active)

CCOC(=O)CCn1nc(-c2ccc(Cl)cc2)cc1N
Ki (fMet-Leu-Phe receptor): > 66.7 µM (inactive)

O=C(Nc1ccc2nc(-c3ccccc3)oc2c1)c1ccco1
IC50 (Protein skinhead-1): > 100 µM (inactive)

O=C(COc1ccccc1)N/N=C/c1sc(=O)n(Cc2cccc(C(=O)O)c2)c1Cl
AC50 [2]: > 20 µM (inactive)

COC(=O)c1ccc(-c2ccc(Cl)cc2)nc1C
IC50 (Protein skinhead-1): 82.5 µM (inactive)

Clc1ccccc1-c1nc(-c2ccncc2)no1 [PIFEXOLE]
IC50 (Protein skinhead-1): 11.2 µM (active) and 18.8 µM (active)
AC50 (Cytochrome P450 2D6): 3.16 µM (inconclusive)
AC50 (Cytochrome P450 3A4): 2 µM (inconclusive)

Clc1ccc2oc(SCc3cccnc3)nc2c1
IC50 (Protein skinhead-1): 33.5 µM (active)
